Assay results reported in patent US10383865B2, “Pharmaceutical combination composition comprising complex formulations of Ivacaftor and Lumacaftor and their salts and derivatives, process for their preparation thereof and pharmaceutical compositions containing them” (Druggability Technologies IP Holdco Limited, priority 2016, dated 2019).
Where “and” joins values, the source holds several entries; their conditions need not be identical. Equal values may be shown once. Read-outs that look alike come from different tables or passages of the source.

Tests used:
[1] = cited from earlier work
[2] = cited from earlier work; for share of the total dose eliminated as this metabolite: oral administration of Ivacaftor
[3] = cited from earlier work; for median (range) tmax: multiple oral dose of Ivacaftor in combination with Lumacaftor, fed state; for exposure with fat-containing foods relative to fasting state: single dose of Lumacaftor/Ivacaftor
CYP3A = details: in-vitro and clinical studies; cited from earlier work
[4] = cited from earlier work; remark: listed apart in the source
[5] = system: plasma proteins, primarily albumin; details: cited from earlier work
[6] = system: colorectal adenocarcinoma (Caco-2) cell system; details: cited from earlier work
CFTR protein = CFTR protein (Homo sapiens, UniProt P13569); details: major human metabolites of Ivacaftor; cited from earlier work
CFTR protein, sequence (P13569 whole entry): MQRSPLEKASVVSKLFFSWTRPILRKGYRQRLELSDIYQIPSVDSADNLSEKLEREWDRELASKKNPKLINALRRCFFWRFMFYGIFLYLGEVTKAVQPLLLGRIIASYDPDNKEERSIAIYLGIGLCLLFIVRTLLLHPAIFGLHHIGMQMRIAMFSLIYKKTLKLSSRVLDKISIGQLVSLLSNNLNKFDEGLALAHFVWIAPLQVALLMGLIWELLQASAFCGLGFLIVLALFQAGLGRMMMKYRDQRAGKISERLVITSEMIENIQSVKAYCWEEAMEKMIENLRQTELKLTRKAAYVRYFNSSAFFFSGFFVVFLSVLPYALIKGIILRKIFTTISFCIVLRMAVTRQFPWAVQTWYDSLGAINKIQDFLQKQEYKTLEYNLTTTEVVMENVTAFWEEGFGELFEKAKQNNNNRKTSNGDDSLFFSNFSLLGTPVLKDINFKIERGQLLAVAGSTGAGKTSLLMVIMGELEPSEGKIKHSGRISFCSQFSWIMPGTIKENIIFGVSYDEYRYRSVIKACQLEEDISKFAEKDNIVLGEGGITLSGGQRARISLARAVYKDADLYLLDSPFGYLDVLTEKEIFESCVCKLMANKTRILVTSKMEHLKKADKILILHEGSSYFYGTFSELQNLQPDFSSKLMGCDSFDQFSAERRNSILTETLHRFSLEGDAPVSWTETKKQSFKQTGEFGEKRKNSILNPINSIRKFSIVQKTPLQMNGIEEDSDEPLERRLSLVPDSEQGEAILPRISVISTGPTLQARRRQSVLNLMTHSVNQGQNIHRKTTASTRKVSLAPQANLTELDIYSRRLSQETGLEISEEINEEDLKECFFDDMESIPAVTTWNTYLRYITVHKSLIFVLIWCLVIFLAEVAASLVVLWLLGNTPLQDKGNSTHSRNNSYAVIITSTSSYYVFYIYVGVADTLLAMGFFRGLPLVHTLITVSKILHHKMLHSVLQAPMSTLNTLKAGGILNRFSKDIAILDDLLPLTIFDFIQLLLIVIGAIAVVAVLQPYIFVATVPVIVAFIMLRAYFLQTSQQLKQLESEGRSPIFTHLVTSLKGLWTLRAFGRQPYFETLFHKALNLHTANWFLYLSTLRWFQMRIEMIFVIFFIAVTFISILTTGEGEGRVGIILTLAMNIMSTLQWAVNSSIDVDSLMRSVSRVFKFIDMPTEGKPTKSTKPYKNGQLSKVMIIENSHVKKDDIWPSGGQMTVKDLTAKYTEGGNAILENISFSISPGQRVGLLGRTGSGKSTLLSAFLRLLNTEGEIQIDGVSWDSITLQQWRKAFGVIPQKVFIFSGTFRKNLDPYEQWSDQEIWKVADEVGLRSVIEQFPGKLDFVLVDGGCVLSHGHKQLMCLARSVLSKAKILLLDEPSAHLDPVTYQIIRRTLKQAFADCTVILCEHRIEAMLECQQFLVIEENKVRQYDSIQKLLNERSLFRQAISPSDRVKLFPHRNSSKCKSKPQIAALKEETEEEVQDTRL

[7] = Gastro-intestinal tract simulated dissolution test (fasted/FaSSIF and fed/FeSSIF); type: physicochemical; details: for increase of Ivacaftor dissolution / apparent solubility in FeSSIF condition: FeSSIF vs FaSSIF
Protocol: Gastro-intestinal tract simulated drug dissolution tests were performed by dispersing the blended pharmaceutical combination composition described above in purified water. The dispersion contained 1 mg/mL Lumacaftor and 0.625 mg/mL Ivacaftor (identical mixture to ORKAMBI®). After 30 minutes holding time, simulated gastric fluid (SGF V2) was added to dispersion in order to set-up the pH to 1.6 (fasted state simulation) or FeSSIF buffer to increase the pH to 5.8 (fed state simulation). After 60 minutes holding time, the pH of the fasted state simulated dispersion was set-up to pH=6.5 adding maleic acid solution. FaSSIF solution was also added to the dispersion to ensure the fasted condition in the intestine simulation. In case of fed state simulation FeSSIF solution was added to the dispersion.
The dissolved amount of Lumacaftor and Ivacaftor from the blended pharmaceutical combination composition was measured by RP-HPLC after filtration with 0.1 μm pore size filter at different time points. Dissolution of Ivacaftor and Lumacaftor from the blended and granulated complex formulation was instantaneous, within 5 minutes more than 85% of the Ivacaftor and Lumacaftor dissolved from the pharmaceutical composition of present invention both in fasted and fed state simulated condition. (FIG. 3).

[8] = Redispersibility / DLS particle size of ball milled formulations; type: physicochemical; details: after ball milling and lyophilization
Protocol: Ivacaftor was ball milled in the presence of the excipients used for the preparation of solid dispersion. Crystalline Lumacaftor was ball milled in the absence of complexation agent (Luviscol VA64) and pharmaceutically acceptable excipient (SDS) and in the presence of them. Ball milling parameters were the following: • Speed: 500 rpm • Milling time: 1 hour • Number of the balls: 25 pcs with 10 mm diameter • Milling vessel's material: […] • Quantity of the milled samples: 100 mg API equivalent mass in 12 mL Milli-Q water
After the milling, the vessel was washed out with 5 mL Milli-Q water. The products were frozen on salted ice and then it was lyophilized using a freeze-drier equipped with −110° C. ice condenser, with a vacuum pump. The material and in-vitro properties of the resulted formulations were compared to the complex Lumacaftor and Ivacaftor formulations.
Particle size of the formulations was measured by DLS technique in reconstituted dispersion/solution.

[9] = Comparative apparent solubility test (100 nm filtration, UV-VIS or RP-HPLC); type: physicochemical; details: ultrapurified water, thermodynamic from solid, FIG. 17, read-out: comparative apparent solubility of Ivacaftor formulations
Protocol: The apparent solubility was measured by UV-VIS spectroscopy or RP-HPLC at room temperature. The samples were dispersed in ultrapurified water in 1-20 mg/mL active ingredient equivalent concentration range. The resulting solutions were filtered by 100 nm disposable syringe filter. The active ingredient content in the filtrate was measured by UV-Vis spectrophotometry or RP-HPLC and the apparent solubility was calculated. The filtrate may contain particles which could not be filtrated out using 100 nm pore size filter.

[10] = single 150 mg oral dose, healthy volunteers, fed state

CC(C)(C)c1cc(C(C)(C)C)c(NC(=O)c2c[nH]c3ccccc3c2=O)cc1O [Ivacaftor, N-(2,4-di-tert-butyl-5-hydroxyphenyl)-1,4-dihydro-4oxoquinoline-3-carboxamide]
solubility in water ([1]; water): < 0.05 microgram/mL | apparent volume of distribution, mean (±SD) ([2]; 150 mg every 12 hours for 7 days, healthy volunteers, fed state): 353 (122) L | accumulation ratio ([2]; every 12-hour dosing): 2.2 to 2.9 | time to steady-state plasma concentrations ([2]; every 12-hour dosing): 3 to 5 days | median (range) tmax ([2]; fed state): approximately 4.0 (3.0; 6.0) hours | increase of exposure when given with food containing fat (food effect) ([2]; humans, fed vs fasted): 2-to 4 fold and 2-4 fold | fraction of dose eliminated in the feces after metabolic conversion ([2]; oral administration): 87.8% | urinary excretion as unchanged parent ([2]; oral administration): negligible | AUC, mean (±SD) [2, 10]: 10,600 (5260) ng*hr/mL | Cmax, mean (±SD) [2, 10]: 768 (233) ng/mL | time of peak plasma concentrations (tmax) [2, 10]: approximately 4 hours | apparent terminal half-life ([2]; single dose): approximately 12 hours | median (range) tmax [3]: approximately 4.0 hours | exposure with fat-containing foods relative to fasting state [3]: approximately 3 times | main metabolic route (CYP3A): primarily metabolized by CYP3A

Cc1ccc(NC(=O)C2(c3ccc4c(c3)OC(F)(F)O4)CC2)nc1-c1cccc(C(=O)O)c1 [Lumacaftor]
solubility ([1]; water and buffer solutions of pH 1.0 to pH 8.0): practically insoluble | apparent volume of distribution, mean (±SD) ([4]; 200 mg every 24 hours for 28 days, CF patients, fed state): 86.0 (69.8) L | total radioactivity recovered in the urine ([4]; Lumacaftor and its metabolites): 8.6% | median (range) time of the maximum concentration (tmax) ([4]; fed state): approximately 4.0 (2.0, 9.0) hours | increase of exposure when given with fat containing food ([4]; fed vs fasted): 1.6-to 2.0 fold | excreted unchanged in the feces ([4]; humans): 51% | main metabolic route ([4]; in-vitro and in vivo data): mainly metabolized via oxidation and glucuronidation | recovered in urine as unchanged parent ([4]; of total radioactivity): 0.18% | half-life ([4]; patients with CF): approximately 26 hours | bound to plasma proteins [5]: approximately 99% | permeability in Caco-2 cell system [6]: high permeability | median (range) tmax [3]: approximately 4.0 hours | exposure with fat-containing foods relative to fasting state [3]: approximately 2 times

CC(C)(C)c1cc(C(C)(C)CO)c(O)cc1NC(=O)c1c[nH]c2ccccc2c1=O [M1]
share of the total dose eliminated as this metabolite [2]: 22% | potency relative to Ivacaftor (CFTR protein): approximately one-sixth

CC(C)(C)c1cc(C(C)(C)C(=O)O)c(O)cc1NC(=O)c1c[nH]c2ccccc2c1=O [M6]
share of the total dose eliminated as this metabolite [2]: 43% | potency relative to Ivacaftor (CFTR protein): less than one-fiftieth

CC(C)(C)c1cc(C(C)(C)C)c(NC(=O)c2c[nH]c3ccccc3c2=O)cc1O [ball milled crystalline Ivacaftor]
increase of Ivacaftor dissolution / apparent solubility in FeSSIF condition [7]: 3 fold

Cc1ccc(NC(=O)C2(c3ccc4c(c3)OC(F)(F)O4)CC2)nc1-c1cccc(C(=O)O)c1 [ball milled crystalline Lumacaftor]
redispersibility in purified water [8]: hardly redispersible

CC(C)(C)c1cc(C(C)(C)C)c(NC(=O)c2c[nH]c3ccccc3c2=O)cc1O [crystalline Ivacaftor]
solubility [9]: < 100 µg/mL | increase of Ivacaftor dissolution / apparent solubility in FeSSIF condition [7]: 5 fold

Cc1ccc(NC(=O)C2(c3ccc4c(c3)OC(F)(F)O4)CC2)nc1-c1cccc(C(=O)O)c1 [crystalline Lumacaftor]
apparent solubility of Lumacaftor ([7]; both in FaSSIF and FeSSIF media): below 10%
